In one data set the test system is HIV-1LAI. Description: EASY-HIT assay: infectious virus production by LC5-RIC reporter cells exposed to HIV-1LAI. The format is cell-based. Conditions: for Infectious virus production, median (fluorescent signal normalized to untreated virus-exposed cultures): 50 nM, LC5-RIC, secondary plates 72 h after transfer. The protocol:
To identify natural compounds with anti-HIV activity we screened a collection of 10,000 natural compounds: Anti-HIV activity was evaluated by determining compound effects on infectious virus production by LC5-RIC cells which are highly susceptible for HIV and contain a DsRed1-encoding reporter gene activated by HIV-infection[6]–[8]. For screening, cultures of LC5-RIC reporter cells were first exposed to virus in the presence of the compound (first-step of the assay). Subsequently, supernatants of these cultures were transferred to secondary plates with uninfected LC5-RIC cells. The fluorescent signal of the cultures in the secondary plates served as a measure of compound effects on infectious virus production.
Anti-HIV activities of compounds were profiled in LC5-RIC cells with the EASY-HIT assay as described in[6]. Briefly, LC5-RIC cells were first exposed to virus and compounds (first step of the assay). Compound effects on infectious virus production were determined by transferring aliquots of supernatants of compound-treated cultures to secondary plates and measurement of fluorescent signal intensities in secondary plates after 72 h (second step of the assay). Fluorescent signal intensities determined for compound-treated cultures were normalized to those determined for untreated virus-exposed cultures.

The nature of data set [1]: CellTiter-Glo 2.0 cell viability assay in PBMC. The format is cell-based, human. Conditions: human. The protocol:
(§1) The following assays were used to profile cell safety of compound treatment in HIV-exposed cultures (LC5-RIC or PBMC): (1) CellTox^TM Green Cytotoxicity Assay, Promega, measures binding of a fluorescent dye to DNA of cells with impaired membrane integrity; (2) CellTiter-Glo® 2.0 Assay, Promega, which measures the amount of ATP in viable cells after lysis using an assay with luminescence read-out. Cells were plated into black 96-well plates followed by overnight incubation at 37 °C, 5% CO2. Compounds dissolved in DMSO were screened at multiple concentrations from 0.6 to 10,000 nM at a final DMSO concentration of 0.04% followed by additional 48 h incubation. Both assays were performed according to manufacturer’s recommendations and consecutively in the above mentioned order. Cells were washed once with PBS between the assays.

Data set [2] concerns HIV-1 transcripts (unspliced, singly spliced, multiply spliced, all). The data set can be described thus: Relative levels of HIV-1 transcript classes by qRT-PCR in LC5-RIC cells. Conditions: HIV-1LAI, 48 h, vs untreated. The format is cell-based. The protocol:
LC5-RIC cells were plated, treated with compounds and inoculated with virus as described for Alu-PCR above. Cells were then harvested and RNA was extracted using the RNeasy Mini Kit (QIAGEN), according to the manufacturer’s protocol. For cDNA synthesis, 1 µg of total RNA was reverse transcribed by SuperScript II reverse transcriptase (Invitrogen) according to manufacturer’s recommendations. qRT-PCR was performed with the Roche Light Cycler® 480II 96 (Version 1.5.0.39), using LightCycler® 480 SYBR Green I Mastermix (Roche). Quantitative PCR for HIV-1 transcripts was performed with primers specific for unspliced, singly spliced or multiply spliced HIV-1 transcripts as well as for ‘all HIV transcripts’; RNA Polymerase II transcripts were analysed as internal reference gene. Primer sequences are given in Supplementary Methods and binding sites shown in Supplementary Fig. S3. Data was analysed with the second derivative maximum method. The relative amount of HIV-1 transcripts in treated versus untreated samples was calculated by the 2^(−ΔΔCt) method, using RNA polymerase II as reference gene.
The following primers were used to perform the qRT-PCR analysis (primer sequences 5’ ? 3’): multiply spliced, forward: ATGGAGCCAGTAGATCCTAG, reverse: AGT CTC TCA AGC GGT GGT ^1; singly spliced, forward: GGc GGC GAC TGG AAG AGG C, reverse: CTATGATTACTATGGACCACA ^1; unspliced, forward: CTG AAG CGC GCA CGG CAA, reverse: GACGCTCTCGCACCCATCTC ^1; ‘all HIV transcripts’, forward: GTGTGTGGTAGATCCACAGATCAAGG, reverse: CCAGTCACACCTCAGGTACCTTTAAGACC ^2; RNA polymerase II, forward: GCA CCA CGT CCA ATG ACA T, reverse: GTG CGG CTG CTT CCA TAA ^3. See primer binding sites in different HIV transcripts in Fig. S1.

Data set [3] has as its system integrated proviral HIV-1 DNA. The data set can be described thus: Integrated proviral HIV-1 DNA by Alu-PCR in LC5-RIC cells. Conditions: HIV-1LAI, 48 h, concentrations >2x IC90, normalized to DMSO. The format is cell-based. The protocol: Quantitative analysis of integrated copies of HIV proviral DNA by Alu-PCR was performed essentially as described in[46]. Briefly, LC5-RIC cells seeded at a density of 100,000 cells per well in 12-well plates and incubated for 24 h were exposed to test compounds and HIV-1LAI virus inoculum at an MOI of 0.5 and incubated for further 48 h at 37 °C, 5% CO2. Subsequently, cells were harvested and genomic DNA (gDNA) was extracted using the QIAamp DNA Mini Kit (QIAGEN) according to the manufacturer’s protocol. The relative amount of integrated proviral HIV-1 DNA was determined by two-step Alu-PCR[46]. The relative amounts of integrated proviral HIV-1 DNA in treated versus untreated samples were calculated by the 2^(−ΔΔCt) method, with ΔCT values representing CT (HIV) - CT (β-globin) for each sample and ΔΔCT values representing values of treated samples normalized to untreated samples.

The nature of data set [4]: CellTiter-Glo 2.0 cell viability assay in LC5-RIC cells. The format is cell-based. The following applies: human; Table S2; CellTiter-Glo 2.0; mean ± SD. The method, then:
as §1

Read-outs that look alike come from different tables or passages of the source.

From paper PMC6987146, “Potent inhibition of HIV replication in primary human cells by novel synthetic polyketides inspired by Aureothin” (Scientific Reports, 2020) come the findings set out here.

Regarding `CN1CC[C@H](c2c(O)cc(O)c3c(=O)cc(-c4ccccc4Cl)oc23)[C@H](O)C1` [Flavopiridol], the “Infectious virus production, median (fluorescent signal normalized to untreated virus-exposed cultures)” value with HIV-1LAI is on record as 10.38. Further, the IC50 in the data set with HIV-1LAI (Human immunodeficiency virus 1, read-out: Anti-HIV in LC5-RIC, IC50) turned out to be 10.9 ± 0.5 nM. Also, the CC50 at 48 h was found to be 120 ± 13.5 nM in data set [1] and 127.4 ± 0.94 nM in data set [4]. In data set [2], the “relative levels of multiply spliced HIV transcripts” value is given as “much stronger inhibitory effect on levels of multiply spliced transcripts than compound #7”. Also, the “reduction of levels of integrated proviral DNA” value in data set [3] is reported as “did not reveal reduction of proviral DNA levels”.

For the compound `COc1oc(C2C/C(=C/C(C)=C/c3ccc(C(F)(F)F)cc3)CO2)c(C)c(=O)c1C` (centres unmarked) [compound #7], the “Infectious virus production, median (fluorescent signal normalized to untreated virus-exposed cultures)” value in the data set on HIV-1LAI is listed as 0.96. In addition, in the data set on HIV-1LAI (Human immunodeficiency virus 1, read-out: IC90, 90% inhibitory concentration), the IC90 was 13.4 ± 1.75 nM. Besides, the IC50 with HIV-1LAI (LC5-RIC cells exposed to HIV-1LAI, infectious virus production, mean ± SD, listed as #7, read-out: IC50, half maximal inhibitory concentration) is below 10 nM. Besides, the IC50 with HIV-1LAI (LC5-RIC cells exposed to HIV-1LAI, infectious virus production, mean ± SD, read-out: IC50, half maximal inhibitory concentration) worked out at 4.9 ± 0.16 nM. The CC50 at 48 h in data set [1] (CellTiter-Glo 2.0, PBMC, read-out: Cell viability in PBMC, CC50) was above 10000 nM. Moreover, in data set [2], the “levels of singly spliced HIV transcripts” value is on record as “strongly diminished”, the “levels of unspliced HIV transcripts” value is given as “strongly diminished”, the “overall abundance of HIV mRNAs (all transcripts primers)” value is listed as “reduced the overall abundance of HIV mRNAs” and the “relative levels of multiply spliced HIV transcripts” value is “did not reduce relative levels of multiply spliced transcripts”. The “reduction of levels of integrated proviral DNA” value in data set [3] is recorded as below 20%. The compound further registered a CC50 at 48 h in data set [4] above 10000 nM.
